Legend:
Staphylococcus aureus [1] = assay: Antibacterial activity against Staphylococcus aureus; format: functional
Escherichia coli [2] = assay: Antibacterial activity against Escherichia coli; format: functional
Pseudomonas aeruginosa = assay: Antibacterial activity against Pseudomonas aeruginosa; format: functional
Candida albicans = assay: Antifungal activity against Candida albicans; format: functional
Proteus vulgaris = assay: Antibacterial activity against Proteus vulgaris; format: functional
Klebsiella aerogenes [3] = assay: Antibacterial activity against Klebsiella aerogenes; format: functional
Enterococcus faecalis = assay: Antibacterial activity against Enterococcus faecalis; format: functional
[4] = test system: Staphylococcus epidermidis; assay: Antibacterial activity against Staphylococcus epidermidis; format: functional
Salmonella typhimurium = assay: Antibacterial activity against Salmonella typhimurium; format: functional, Salmonella enterica subsp. enterica serovar Typhimurium; settings: Salmonella enterica
Bacillus subtilis [5] = assay: Antibacterial activity against Bacillus subtilis; format: functional
Proteus = assay: Antibacterial activity against Proteus; format: functional
Staphylococcus aureus [6] = assay: Antibacterial activity against Staphylococcus aureus ATCC 6538 after 18 hrs by two fold serial dilution; format: functional; settings: ATCC 6538, 18 h
Bacillus subtilis [7] = assay: Antibacterial activity against Bacillus subtilis PTCC 1023 after 18 hrs by two fold serial dilution; format: functional; settings: PTCC 1023, 18 h
Klebsiella pneumoniae = assay: Antibacterial activity against Klebsiella pneumoniae ATCC 10031 after 18 hrs by two fold serial dilution; format: functional; settings: ATCC 10031, 18 h
Escherichia coli [8] = assay: Antibacterial activity against Escherichia coli ATCC 8739 after 18 hrs by two fold serial dilution; format: functional; settings: ATCC 8739, 18 h
Klebsiella aerogenes [9] = assay: Antibacterial activity against Enterobacter aerogenes PTCC 1221 after 18 hrs by two fold serial dilution; format: functional; settings: PTCC 1221, 18 h
[10] = test system: Staphylococcus epidermidis; assay: Antibacterial activity against methicillin-sensitive Staphylococcus epidermidis by two fold dilution method; format: functional
Staphylococcus aureus [11] = assay: Antibacterial activity against methicillin-sensitive Staphylococcus aureus by two fold dilution method; format: functional
Helicobacter pylori [12] = assay: Antibacterial activity against Helicobacter pylori NCTC 11637; format: functional
Helicobacter pylori [13] = assay: Antibacterial activity against metronidazole-resistant Helicobacter pylori clinical isolates; format: functional
Helicobacter pylori [14] = assay: Antibacterial activity against Helicobacter pylori; format: functional

Cc1ncc([N+](=O)[O-])n1CCN1C(=O)S/C(=C\c2ccc(Cl)cc2)C1=O
31.2 to 500 mg/L: MIC (Staphylococcus aureus [1]) | MIC (Escherichia coli [2]) | MIC (Pseudomonas aeruginosa) | MIC (Candida albicans) | MIC (Proteus vulgaris) | MIC (Klebsiella aerogenes [3]) | MIC (Enterococcus faecalis) | MIC [4] | MIC (Salmonella typhimurium)

Cc1ncc([N+](=O)[O-])n1CCCNS(=O)(=O)c1ccc(NCc2ccc(Cl)cc2Cl)cc1
64 to 128 mg/L: MIC (Staphylococcus aureus [1]) | MIC (Bacillus subtilis [5]) | MIC (Escherichia coli [2]) | MIC (Pseudomonas aeruginosa) | MIC (Salmonella typhimurium) | MIC (Proteus)

Cn1cnc([N+](=O)[O-])c1Sc1nnc(-c2ccc([N+](=O)[O-])o2)s1
> 64 mg/L: MIC (Bacillus subtilis [7]) | MIC (Klebsiella pneumoniae) | MIC (Escherichia coli [8]) | MIC (Klebsiella aerogenes [9])
4 to 32 mg/L: MIC (Staphylococcus aureus [6])

COc1c(N2C[C@@H]3CCCN(C[C@@H](O)Cn4c([N+](=O)[O-])cnc4C)[C@@H]3C2)c(F)cc2c(=O)c(C(=O)O)cn(C3CC3)c12
0.03 to 2 mg/L: MIC [10] | MIC (Staphylococcus aureus [11])

Cc1ncc([N+](=O)[O-])n1CCN1C(=O)S/C(=C\c2ccco2)C1=O
31.2 to 500 mg/L: MIC (Staphylococcus aureus [1]) | MIC (Escherichia coli [2]) | MIC (Pseudomonas aeruginosa) | MIC (Candida albicans) | MIC (Proteus vulgaris) | MIC (Klebsiella aerogenes [3]) | MIC (Enterococcus faecalis) | MIC [4] | MIC (Salmonella typhimurium)

Cc1ncc([N+](=O)[O-])n1CCOc1no[n+]([O-])c1S(=O)(=O)c1ccccc1
1 to 4 mg/L: MIC90 (Helicobacter pylori [14])
0.5 to 32 mg/L: MIC90 (Helicobacter pylori [12]) | MIC90 (Helicobacter pylori [13])

Cc1ncc([N+](=O)[O-])n1CCOc1nonc1-c1ccccc1
1 to 4 mg/L: MIC90 (Helicobacter pylori [14])
0.5 to 32 mg/L: MIC90 (Helicobacter pylori [12]) | MIC90 (Helicobacter pylori [13])

— ChEMBL document CHEMBL4304773, “Nitroimidazole-containing compounds and their antibacterial and antitubercular activities” (2019)
